Laboratory results taken from ChEMBL document CHEMBL5029164, “JNJ-67569762, A 2-Aminotetrahydropyridine-Based Selective BACE1 Inhibitor Targeting the S3 Pocket: From Discovery to Clinical Candidate” (J Med Chem, 2021).
pIC50: −log10 of the molar value. Calls of active or inactive are those of the source. The rule behind the calls is not given here.

What was measured:
[1] = target: T1, Beta-secretase 1 (Homo sapiens, UniProt P56817); assay: Inhibition of BACE1 (1 to 454 residues) (unknown origin) using APP harboring Swedish Lys-Met/Asn-Leu mutant-derived peptide as substrate by FRET assay
[2] = Metabolic stability in human liver microsomes assessed as intrinsic clearance; type: ADME, Microsome; settings: read-out: CLH
[3] = Glutathione reactivity in human liver microsomes; type: ADME
[4] = Cyanide reactivity in human liver microsomes; type: ADME
[5] = species on record: Homo sapiens; assay: Selectivity index, ratio of IC50 for inhibition of BACE2 (unknown origin) to IC50 for inhibition of BACE1 (1 to 454 residues) (unknown origin)
[6] = target: T2, Beta-secretase 2 (Homo sapiens, UniProt Q9Y5Z0); assay: Inhibition of BACE2 (unknown origin) using APP harboring Swedish Lys-Met/Asn-Leu mutant-derived peptide as substrate incubated for 2 hrs by FRET assay
T2 sequence (Q9Y5Z0 whole entry): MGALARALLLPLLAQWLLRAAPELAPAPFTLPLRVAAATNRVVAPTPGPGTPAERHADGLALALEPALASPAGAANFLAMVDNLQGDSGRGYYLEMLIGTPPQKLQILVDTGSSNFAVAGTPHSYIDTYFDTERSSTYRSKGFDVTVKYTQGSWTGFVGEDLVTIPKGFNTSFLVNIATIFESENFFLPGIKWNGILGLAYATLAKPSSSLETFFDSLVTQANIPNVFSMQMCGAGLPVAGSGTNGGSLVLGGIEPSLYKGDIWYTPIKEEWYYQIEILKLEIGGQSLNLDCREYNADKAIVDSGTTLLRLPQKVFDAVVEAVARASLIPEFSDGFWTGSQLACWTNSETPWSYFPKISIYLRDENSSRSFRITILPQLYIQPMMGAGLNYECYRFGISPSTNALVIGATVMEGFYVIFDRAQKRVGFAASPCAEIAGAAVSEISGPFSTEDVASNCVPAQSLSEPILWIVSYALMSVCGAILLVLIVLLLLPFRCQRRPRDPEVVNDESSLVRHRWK

[7] = target: T1, Beta-secretase 1; assay: Inhibition of BACE1 in human […] cells expressing wild type APP695 assessed as reduction in amyloid beta 42 secretion incubated for 18 hrs by sandwich ELISA; type: cell-based, SKNBE2
[8] = tested on: Mus musculus; assay: In vivo inhibition of BACE1 in C57BL/6J mouse assessed as reduction in plasma SEZ6L level at 3.5 to 52 mg/kg,/day administered via diet for 21 days; type: functional, organism-based; settings: dose 3.5-52 mg/kg, time 21.0 day

T1 sequence (P56817 whole entry, the tested form may be a part): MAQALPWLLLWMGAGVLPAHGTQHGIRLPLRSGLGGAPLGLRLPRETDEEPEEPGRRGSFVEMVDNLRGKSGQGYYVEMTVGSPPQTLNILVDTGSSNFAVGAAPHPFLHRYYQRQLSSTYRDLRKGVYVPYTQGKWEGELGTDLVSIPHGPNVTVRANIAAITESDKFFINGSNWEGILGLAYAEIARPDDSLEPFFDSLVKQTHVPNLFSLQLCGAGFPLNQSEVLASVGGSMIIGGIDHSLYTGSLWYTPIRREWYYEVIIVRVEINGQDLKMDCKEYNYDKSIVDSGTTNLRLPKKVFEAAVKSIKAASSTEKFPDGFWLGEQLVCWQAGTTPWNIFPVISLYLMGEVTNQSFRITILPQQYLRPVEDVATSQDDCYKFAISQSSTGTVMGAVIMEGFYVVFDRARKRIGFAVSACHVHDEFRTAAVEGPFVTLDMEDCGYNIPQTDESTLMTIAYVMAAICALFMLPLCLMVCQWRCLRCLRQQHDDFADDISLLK

| Compound | pIC50 [1] | microsomal CLint [2] [µL/min/mg] | pIC50 [6] | pIC50 [7] | Activity [3] | Activity [4] | Ratio IC50 [5] | Ratio IC50 ([5]; tested as the 2H-labelled form) | inhibition [8] |
| --- | --- | --- | --- | --- | --- | --- | --- | --- | --- |
| C[C@@]1(S(C)(=O)=O)CC[C@@](CF)(c2cc(NC(=O)c3cc4c(cn3)OC(F)(F)CO4)ccc2F)N=C1N | 8.85 | < 7.7 |  |  | Not Active | Active | 48 |  |  |
| CC(C)S(=O)(=O)[C@]1(C)CC[C@@](CF)(c2cc(NC(=O)c3cc4c(cn3)OC(F)(F)O4)ccc2F)N=C1N | 8.00 | < 7.7 | 6.33 | 8.17 |  |  | 46 |  |  |
| [2H]C1([2H])Oc2cnc(C(=O)Nc3ccc(F)c([C@]4(CF)CC[C@@](C)(S(C)(=O)=O)C(N)=N4)c3)cc2OC1([2H])[2H] |  | 7.9 |  |  | Not Active | Active |  |  |  |
| C[C@@]1(S(C)(=O)=O)CC[C@@](CF)(c2cc(NC(=O)c3cc4c(cn3)OC(F)(F)O4)ccc2F)N=C1N |  | < 7.7 |  |  | Not Active | Active | 38 |  |  |
| C[C@@]1(S(C)(=O)=O)CC[C@@](CF)(c2cc(NC(=O)c3cc4c(cn3)OCCO4)ccc2F)N=C1N | 8.64 | 11.3 | 6.47 | 8.52 | Not Active | Active | 145 | 102 |  |
| C[C@@]1(c2cc(NC(=O)c3ccc(C#N)cn3)ccc2F)C[C@@H](C(F)(F)F)OC(N)=N1 |  |  |  |  |  |  |  |  | Active |
| CCc1cc([C@]2(c3ccc(F)c(-c4cccnc4C(F)F)c3)N=C(N)N(C)C2=O)cc(CC)n1 | 8.00 |  | 5.17 |  |  |  |  |  |  |

The next lines start with results.

| pIC50 [1] | microsomal CLint [2] [µL/min/mg] | pIC50 [6] | pIC50 [7] | Compound | Activity [3] | Activity [4] | Ratio IC50 [5] | Ratio IC50 ([5]; tested as the 2H-labelled form) | inhibition [8] |
| --- | --- | --- | --- | --- | --- | --- | --- | --- | --- |
| 8.70 |  | 7.80 | 8.64 | C[C@@]1(S(C)(=O)=O)CC[C@@](CF)(c2cc(NC(=O)c3cnc(OCF)cn3)ccc2F)N=C1N |  |  |  |  |  |
| 7.55 | 16.7 | 5.94 | 7.12 | C[C@@]1(S(C)(=O)=O)CC[C@@](CF)(c2cc(NC(=O)c3cc4c(cn3)OCCCO4)ccc2F)N=C1N |  |  | 41 |  |  |
| 8.64 | 36.4 | 7.33 | 7.96 | C[C@@]1(S(C)(=O)=O)CC[C@@](CF)(c2cc(NC(=O)c3cc4c(cn3)OCO4)ccc2F)N=C1N |  |  |  |  |  |
| 8.02 | < 7.7 | 6.72 | 7.82 | COc1cc(C(=O)Nc2ccc(F)c([C@]3(CF)CC[C@@](C)(S(C)(=O)=O)C(N)=N3)c2)ncn1 |  |  | 19 |  |  |
|  | < 7.7 | 8.51 | 8.48 | C[C@@]1(S(C)(=O)=O)CC[C@@](CF)(c2cc(NC(=O)c3ccc(F)cn3)ccc2F)N=C1N |  |  |  |  |  |
